Experimental data reported in patent publication US4146719A, “Piperazinyl derivatives of quinoline carboxylic acids” (priority 1977, dated 1979).
Converted amounts (≈) assume the structure as drawn. “Also recorded” adds a separate entry of the source. Read-outs that look alike come from different tables or passages of the source.

What was measured:
[1] = system: Ps. aeruginosa IID 1130; test: Antibacterial activity in vitro, M.I.C., agar dilution streak method; type: cell-based, Pseudomonas aeruginosa; details: Pseudomonas aeruginosa, IID1130; Gram -; read-out: M.I.C.
[2] = system: Haemophilus influenzae IID 986; test: as above; type: cell-based; details: Haemophilus influenzae, IID986; Gram -; read-out: M.I.C.
[3] = system: Str. faecalis IID 682; test: as above; type: cell-based; details: Enterococcus faecalis, IID682; Gram +
[4] = system: E. coli ATCC 10536; test: as above; type: cell-based, Escherichia coli; details: Escherichia coli, ATCC10536; Gram -; read-out: M.I.C.
[5] = system: Escherichia coli NIHJ JC-2; test: Influence of kidney homogenate on antibacterial activity; type: cell-based
Procedure: (§1) Nutrient agar was heated and melted. […] The diameter of the inhibition zone was measured.

[6] = Serum concentrations after a single oral administration of 50 mg/kg in rats; type: in vivo; details: rat, 50 mg/kg oral
[7] = system: Diplococcus pneumoniae IID 552; test: Antibacterial activity in vitro, M.I.C., agar dilution streak method; type: cell-based; details: Streptococcus pneumoniae, IID552; Gram +; read-out: M.I.C.
[8] = system: Escherichia coli NIHJ JC-2; test: Influence of rat bile on antibacterial activity; type: cell-based; details: bile of rats
Procedure: as §1

[9] = rat, in vivo, po, 50 mg/kg
Procedure: Nutrient agar was heated and melted. Escherichia coli NIHJ JC-2 was added to melted agar, and well mixed, and 5 ml of the mixture was placed in Petri dish. Penicylinders were placed on the solidified agar, and the cylinder was filled with serum sample. The plate was placed in the incubator of 37° C. for 20 hours. The diameter of the inhibition zone was measured.
The tissue homogenates were prepared with 1:4 homogenates in M/15 phosphate buffer (pH 7.5).

[10] = Biliary excretion in rats after a single oral administration of 50 mg/kg; details: rat, in vivo, po, 50 mg/kg
[11] = Chelate formation with ferric ion; type: physicochemical; details: one third molar equivalent of ferric chloride hexahydrate, molar equivalent of sodium hydroxide, water
Excerpt: It is known that most of drugs such as Quinoform and Ethambutol which form chelates with metal ions in vivo produce undesirable side effects.

[12] = system: Streptococcus pyogenes IID 692; test: Antibacterial activity in vitro, M.I.C., agar dilution streak method; type: cell-based; details: Streptococcus pyogenes, IID692; Gram +; read-out: M.I.C.
[13] = system: Escherichia coli NIHJ JC-2; test: Influence of liver homogenate on antibacterial activity; type: cell-based
Procedure: as §1

[14] = system: Escherichia coli NIHJ JC-2; test: Preventive effect against ascending kidney infection in mice with Escherichia coli; type: in vivo, Escherichia coli; mice (ddY, female); details: for effect against ascending kidney infection (in words): mice
Procedure: Ascending kidney infection was induced in female mice (strain: ddY, 6 weeks old, body weight: 22-26g), by instilling Escherlichia coli NIHJ JC-2 suspended in 0.04 ml of Tryptosoya broth (Nissan) into the urinary tract of mice anesthetized with sodium pentobarbital and by holding for 6 hours the mice in plastic tubes (diameter 25 mm) and clamping the outlet of urinary tract.
Each of these test material was orally administered 3 hours after inoculation. Mice were sacrificed 48 hours after inoculation. Kidneys were removed aseptically and bisected, and the two halves were pressed and streaked on agar plate containing Desoxycholate medium (Nissan). The therapeutic effect of each compound was evaluated from the absence of growth on the agar surface after 20 hours of incubation at 37° C.

[15] = system: Bacillus subtilis PCI 219; test: Antibacterial activity in vitro, M.I.C., agar dilution streak method; type: cell-based; details: Bacillus subtilis, PCI219; Gram +; read-out: M.I.C.
[16] = system: Str. pyogenes S-8; test: as above; type: cell-based, Streptococcus pyogenes; details: Streptococcus pyogenes, S8; Gram +; read-out: M.I.C.
[17] = system: Corynebacterium pyogenes IID 548; test: as above; type: cell-based; details: Corynebacterium pyogenes, IID548; Gram +
[18] = system: gram-positive and gram-negative bacteria including Pseudomonas aeruginosa; test: Antibacterial spectrum in vitro (summary in words); type: cell-based
[19] = system: Escherichia coli NIHJ JC-2; test: Influence of serum on antibacterial activity; type: cell-based
Procedure: as §1

[20] = system: Shigella sonnei IID 969; test: Antibacterial activity in vitro, M.I.C., agar dilution streak method; type: cell-based; details: Shigella sonnei, IID969; Gram -
[21] = Concentrations in urine of mice after a single oral administration; type: in vivo; details: mouse; for concentration at 3 h: 0-3 hours; for concentration at 3 h / concentration at 6 h / concentration at 24 h / concentration at 27 h: mean ±S.E., read-out: Urinary level; for concentration at 6 h: 3-6 hours; for concentration at 24 h: 6-24 hours; for concentration at 27 h: 24-27 hours
[22] = system: Proteus vulgaris IFO 3167; test: Antibacterial activity in vitro, M.I.C., agar dilution streak method; type: cell-based; details: Proteus vulgaris, IFO3167; Gram -; read-out: M.I.C.
[23] = system: My. smegmatis IFO 3083; test: as above; type: cell-based; details: Mycolicibacterium smegmatis, IFO3083; Gram +; read-out: M.I.C.
[24] = Serum concentrations at 30 min. after a single oral administration in rats; details: rat

Compound: CCn1cc(C(=O)O)c(=O)c2cc(F)c(N3CCNCC3)cc21 [Compound (II), 1-ethyl-6-fluoro-1,4-dihydro-7-(1-piperazinyl)-4-oxoquinoline-3-carboxylicacid]
- MIC [1]: 0.78 µg/mL (≈ 2.44 µM)
- MIC [2]: 0.05 µg/mL (≈ 0.157 µM)
- MIC [3]: 3.13 µg/mL
- MIC [4]: 0.05 µg/mL (≈ 0.157 µM)
- antibacterial activity in presence of kidney homogenate (in words) [5]: decreased by liver and kidney homogenate
- absorption (in words) [6]: rapid
- concentration at 0.5 h ([6]; serum, 0.5 hours): 870 ± 110 ng/mL
- concentration at 1 h ([6]; serum, 1 hour): 770 ± 130 ng/mL
- concentration at 2 h ([6]; serum, 2 hours): 520 ± 100 ng/mL
- concentration at 4 h ([6]; serum, 4 hours): 230 ± 20 ng/mL
- concentration at 6 h ([6]; serum, 6 hours): 110 ± 10 ng/mL
- Tmax ([6]; serum, read-out: time of concentration peak in serum (converted)): 30 min
- MIC [7]: 12.5 µg/mL (≈ 39.1 µM)
- antibacterial activity in presence of bile (in words) [8]: not influenced by bile of rats
- Tissue level, kidney (free concentration) ([9]; 30 min): 7.4 ± 1.4 µg/g
- Tissue level, kidney (free concentration) ([9]; 60 min): 6.8 ± 1.2 µg/g
- Tissue level, kidney (free concentration) ([9]; 120 min): 4.4 ± 0.6 µg/g
- Tissue level, kidney (free concentration) ([9]; 240 min): 1.9 ± 0.2 µg/g
- Tissue level, kidney (free concentration) ([9]; 360 min): 1.0 ± 0.1 µg/g
- biliary levels and cumulative excretion (in words) [10]: more excellent than those of nalidixic acid and pipemidic acid
- concentration at 3 h [10]: 31000 ± 3500 ng/mL
- concentration at 6 h [10]: 26400 ± 3200 ng/mL
- concentration at 24 h [10]: 18900 ± 1600 ng/mL
- concentration at 27 h [10]: 6700 ± 900 ng/mL
- dose excreted at 3 h [10]: 0.6 ± 0.06%
- dose excreted at 6 h [10]: 1.02 ± 0.11%
- dose excreted at 24 h [10]: 2.43 ± 0.23%
- dose excreted at 27 h [10]: 2.5 ± 0.23%
- chelate compound with ferric ion [11]: did not give any chelate compound when treated with ferric ion
- MIC [12]: 3.13 µg/mL (≈ 9.8 µM)
- antibacterial activity in presence of liver homogenate (in words) [13]: decreased by liver and kidney homogenate
- ED50 ([14]; Escherichia coli, NIHJJC2, 48 h, oral, 3 hours after inoculation, challenge 3.2 × 10^7 cells/mouse, read-out: ED50 (95% confidence limit)): 15 mg/kg
- ED90 ([14]; Escherichia coli, NIHJJC2, 48 h, oral, 3 hours after inoculation, challenge 3.2 × 10^7 cells/mouse, read-out: ED90): 61 mg/kg
- effect against ascending kidney infection (in words) [14]: more potent than nalidixic acid and pipemidic acid
- effect against ascending kidney infection (in words) ([14]; listed as EXAMPLE 2): effective against ascending kidney infection with Escherichia coli in mice
- MIC [15]: 0.39 µg/mL (≈ 1.22 µM)
- MIC [16]: 1.56 µg/mL (≈ 4.89 µM)
- MIC [17]: 3.13 µg/mL
- antibacterial activity (in words) [18]: more active than nalidixic acid and pipemidic acid against both of gram-positive and gram-negative bacteria; also recorded: more active than gentamicin and carbenicillin against gram-negative bacteria including Pseudomonas aeruginosa; also recorded: inhibited even such bacteria those were not susceptible to nalidixic acid, pipemidic acid and carbenicillin
- antibacterial activity in presence of serum (in words) [19]: not decreased by serum
- MIC [20]: 0.1 µg/mL (≈ 0.313 µM)
- concentration at 3 h ([21]; 1.56 mg/kg oral): 530 ± 60 ng/mL
- concentration at 6 h ([21]; 1.56 mg/kg oral): 220 ± 40 ng/mL
- concentration at 24 h ([21]; 1.56 mg/kg oral): 40 ± 30 ng/mL
- concentration at 27 h ([21]; 1.56 mg/kg oral): 30 ± 20 ng/mL
- concentration at 3 h ([21]; 3.13 mg/kg oral): 1760 ± 190 ng/mL
- concentration at 6 h ([21]; 3.13 mg/kg oral): 1460 ± 230 ng/mL
- concentration at 24 h ([21]; 3.13 mg/kg oral): 270 ± 40 ng/mL
- concentration at 27 h ([21]; 3.13 mg/kg oral): 140 ± 10 ng/mL
- concentration at 3 h ([21]; 6.25 mg/kg oral): 3700 ± 260 ng/mL
- concentration at 6 h ([21]; 6.25 mg/kg oral): 2040 ± 130 ng/mL
- concentration at 24 h ([21]; 6.25 mg/kg oral): 3010 ± 170 ng/mL
- concentration at 27 h ([21]; 6.25 mg/kg oral): 380 ± 50 ng/mL
- concentration at 3 h ([21]; 12.5 mg/kg oral): 10300 ± 900 ng/mL
- concentration at 6 h ([21]; 12.5 mg/kg oral): 8300 ± 700 ng/mL
- concentration at 24 h ([21]; 12.5 mg/kg oral): 7400 ± 800 ng/mL
- concentration at 27 h ([21]; 12.5 mg/kg oral): 1200 ± 100 ng/mL
- concentration at 3 h ([21]; 25.0 mg/kg oral): 16200 ± 3300 ng/mL
- concentration at 6 h ([21]; 25.0 mg/kg oral): 20300 ± 1700 ng/mL
- concentration at 24 h ([21]; 25.0 mg/kg oral): 11700 ± 900 ng/mL
- concentration at 27 h ([21]; 25.0 mg/kg oral): 2500 ± 200 ng/mL
- concentration at 3 h ([21]; 50.0 mg/kg oral): 33100 ± 2800 ng/mL
- concentration at 6 h ([21]; 50.0 mg/kg oral): 27200 ± 3200 ng/mL
- concentration at 24 h ([21]; 50.0 mg/kg oral): 23100 ± 2000 ng/mL
- concentration at 27 h ([21]; 50.0 mg/kg oral): 7700 ± 1100 ng/mL
- Tmax ([21]; oral, read-out: time of concentrations peak in urine): 0 to 360 min
- MIC [22]: 0.05 µg/mL (≈ 0.157 µM)
- MIC [23]: 1.56 µg/mL (≈ 4.89 µM)
- concentration at 0.5 h ([24]; 25 mg/kg): 310 ± 40 ng/mL
- concentration at 0.5 h ([24]; 50 mg/kg): 870 ± 110 ng/mL
- concentration at 0.5 h ([24]; 100 mg/kg): 1420 ± 230 ng/mL
- concentration at 0.5 h ([24]; 200 mg/kg): 2230 ± 300 ng/mL
- concentration at 0.5 h ([24]; 400 mg/kg): 3370 ± 350 ng/mL
